target: T1, human Glycogen Synthase Kinase-3 beta (hGSK-3β) (Homo sapiens, UniProt P49841); test: Biochemical hGSK-3Beta assay (33P incorporation into biotinylated peptide substrate); details: 10 μM ATP, 30 minutes at room temperature; read-out: GSK-3β IC50
T1 construct: purchased Upstate cell signaling solutions
Method: Methods—Biochemical hGSK-3Beta Assay
Compounds were tested for their ability to inhibit human Glycogen Synthase Kinase-3 beta (hGSK-3β) to phosphorylate biotin-[…](pS)EDEEE. Compounds were incubated with 0.5 μCi 33P-ATP, 10 μM ATP, 0.0125 U hGSK-3β (Upstate cell signaling solutions) and 1 μM substrate (biotin-[…](pS)EDEEE) in 50 mM HEPES, 10 mM MgCl2, […], 1 mM DTT, 0.0075% Triton, 2% DMSO (total volume 50 μL) for 30 minutes at room temperature. The incubation was stopped by addition of an equal volume of 100 mM EDTA, 4M NaCl. 80 μL of this mixture was added to streptavidin-coated Flash -plates (Perkin Elmer). Following a wash step, 33P incorporation was quantified on a MicroBeta microplate liquid scintillation counter (PerkinElmer). IC50s were determined by fitting a sigmoidal dose-response curve to the counts obtained at the different concentrations in GraphPad Prism.

T1 sequence (P49841 whole entry): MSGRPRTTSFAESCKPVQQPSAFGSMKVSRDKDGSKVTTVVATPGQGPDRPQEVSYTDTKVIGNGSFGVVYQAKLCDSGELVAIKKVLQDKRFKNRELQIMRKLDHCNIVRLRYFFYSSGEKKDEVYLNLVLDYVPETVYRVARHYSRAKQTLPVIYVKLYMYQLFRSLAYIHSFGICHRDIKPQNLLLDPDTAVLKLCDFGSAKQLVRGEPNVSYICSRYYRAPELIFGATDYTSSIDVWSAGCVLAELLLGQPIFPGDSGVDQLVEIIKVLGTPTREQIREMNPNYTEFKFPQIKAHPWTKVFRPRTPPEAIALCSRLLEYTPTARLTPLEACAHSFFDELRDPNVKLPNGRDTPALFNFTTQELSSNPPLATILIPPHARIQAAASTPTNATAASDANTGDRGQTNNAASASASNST

| SMILES | IC50 |
| --- | --- |
| O=C(Nc1cccc(C(F)(F)F)n1)Nc1ccnc2ccc(Br)cc12 [Example 16, 1-(6-Bromo-quinolin-4-yl)-3-(6-trifluoromethyl-pyridin-2-yl)-urea] | < 100 nM |
| O=C(Nc1cccc(C2=CCOCC2)n1)Nc1ccnc2c(F)cccc12 [Example 1, 1-(6-(3,6-Dihydro-2H-pyran-4-yl)pyridin-2-yl)-3-(8-fluoroquinolin-4-yl)urea] | < 100 nM |
| O=C(Nc1cccc(C(F)(F)F)n1)Nc1ccnc2c(I)cccc12 [Example 24, 1-(8-Iodoquinolin-4-yl)-3-(6-trifluoromethyl-pyridin-2-yl)-urea] | < 100 nM |
| O=C(Nc1cccc(C(F)(F)F)n1)Nc1ccnc2ccccc12 [Example 17, 1-(6-(Trifluoromethyl)pyridin-2-yl)-3-quinolin-4-yl-urea] | < 100 nM |

Results, then the molecule that gave them:

| IC50 | SMILES |
| --- | --- |
| < 100 nM | O=C(Nc1cccc(C2CCOCC2)n1)Nc1ccnc2c(F)cccc12 [Example 2, 1-(8-Fluoroquinolin-4-yl)-3-(6-(tetrahydro-2H-pyran-4-yl)pyridin-2-yl)urea] |
| < 100 nM | N#Cc1cccc2c(NC(=O)Nc3cccc(C(F)(F)F)n3)ccnc12 [Example 23] |
| < 100 nM | O=C(Nc1cccc(C2=COCCC2)n1)Nc1ccnc2c(F)cccc12 [Example 3, 1-(6-(3,4-Dihydro-2H-pyran-5-yl)pyridin-2-yl)-3-(8-fluoroquinolin-4-yl)urea] |
| < 100 nM | COc1ccc2c(NC(=O)Nc3cccc(C(F)(F)F)n3)ccnc2c1 [Example 21, 1-(7-Methoxyquinolin-4-yl)-3-(6-trifluoromethyl-pyridin-2-yl)-urea] |
| < 100 nM | O=C(Nc1cccc(C(F)(F)F)n1)Nc1ccnc2c(F)cc(F)cc12 [Example 18, 1-(6,8-Difluoroquinolin-4-yl)-3-(6-trifluoromethyl-pyridin-2-yl)-urea] |
| < 100 nM | O=C(Nc1cccc(C(F)(F)F)n1)Nc1ccnc2cc(Br)ccc12 [Example 19, 1-(7-Bromoquinolin-4-yl)-3-(6-trifluoromethyl-pyridin-2-yl)-urea] |

Reference: patent publication US9540370B2, “Heterocyclic compounds and their use as glycogen synthase kinase-3 inhibitors” (ABBVIE DEUTSCHLAND GMBH & CO. KG, priority 2010, dated 2017)
